Reference: ChEMBL document CHEMBL1140714, “In search of novel agents for therapy of tropical diseases and human immunodeficiency virus” (J Med Chem, 2008)
The source made the active and inactive calls. The rule behind the calls is not given here.

Assays:
Plasmodium falciparum [1] = experiment: Antiplasmodial activity against chloroquine-sensitive Plasmodium falciparum; type: functional, organism-based
Leishmania major = experiment: Antileishmanial activity against Leishmania major MHOM/IL/81/FE/BNI infected in BALB/c mouse; type: functional
[2] = Cytotoxicity against mouse J774.1 cells after 48 hrs; type: cell-based; conditions: read-out: ED50
[3] = system: Trypanosoma brucei brucei; experiment: Antitrypanosomal activity against Trypanosoma brucei brucei TC221; type: functional; conditions: read-out: ED50 (the source's name)
Staphylococcus aureus = experiment: Antibacterial activity against Staphylococcus aureus assessed as inhibition of biofilm formation; type: functional, organism-based
Plasmodium falciparum [4] = experiment: Antiplasmodial activity against chloroquine-resistant Plasmodium falciparum; type: functional, organism-based
Plasmodium falciparum [5] = experiment: Antiplasmodial activity against Plasmodium falciparum NF54 after 36 hrs; type: functional, organism-based; conditions: NF54, 36 h
Plasmodium falciparum [6] = experiment: Antiplasmodial activity against chloroquine-sensitive Plasmodium falciparum NF54; type: functional, organism-based
Plasmodium falciparum [7] = experiment: Antiplasmodial activity against Plasmodium falciparum NF54 infected mice (Mus musculus) after 72 hrs; type: functional, organism-based; conditions: NF54, 72 h
[8] = system: Human immunodeficiency virus 1; experiment: Antiviral activity against HIV1 NL4/3 replication in PM1 cells; type: functional
[9] = system: Human immunodeficiency virus 1; experiment: Antiviral activity against HIV1 BaL replication in PM1 cells; type: functional
Plasmodium falciparum [10] = experiment: Antiplasmodial activity against Plasmodium falciparum NF54 after 24 hrs; type: functional, organism-based; conditions: NF54, 24 h
Plasmodium falciparum [11] = experiment: Antiplasmodial activity against Plasmodium falciparum NF54 after 72 hrs; type: functional, organism-based; conditions: NF54, 72 h
[12] = system: Human immunodeficiency virus 1; experiment: Antiviral activity against HIV1 NL4/3 replication in PM1 cells at 6 uM; type: functional, organism-based
[13] = system: Human immunodeficiency virus 1; experiment: Antiviral activity against HIV1 BaL replication in PM1 cells at 5 uM; type: functional, organism-based
Mus musculus [14] = experiment: Increase in survival of chloroquine-sensitive Plasmodium falciparum NF54 infected perorally dosed C57BL/6 mice (Mus musculus); type: functional, organism-based
Plasmodium falciparum [15] = experiment: Inhibition of parasitemia in chloroquine-sensitive Plasmodium falciparum NF54 infected C57BL/6 mice (Mus musculus) after 4 days; type: functional; set-up: scale not given: the % may be the effect or the level left
Plasmodium falciparum [16] = experiment: Antiplasmodial activity against Plasmodium falciparum NF54 after 48 hrs; type: functional, organism-based; conditions: NF54, 48 h
Mus musculus [17] = experiment: Increase in survival of chloroquine-sensitive Plasmodium falciparum NF54 infected intravenously dosed C57BL/6 mice (Mus musculus); type: functional, organism-based
Plasmodium falciparum [18] = experiment: Inhibition of parasitemia in chloroquine-sensitive Plasmodium falciparum NF54 infected C57BL/6 mice (Mus musculus) after 2 days at 20 uM; type: functional; set-up: scale not given: the % may be the effect or the level left
Plasmodium falciparum [19] = experiment: Inhibition of parasitemia in chloroquine-sensitive Plasmodium falciparum NF54 infected C57BL/6 mice (Mus musculus) after 1 day at 40 uM; type: functional; set-up: scale not given: the % may be the effect or the level left
[20] = Plasmodium falciparum, read-out: IC50

SMILES | IC50 (Plasmodium falciparum [1]) | EC50 [3] | ED50 (Leishmania major) | CC50 at 48 h [2] | Activity (Staphylococcus aureus) | further results
CC[C@@H]1CC2(C[C@@H](CC)N1)C(=O)NC(=O)N2Cc1ccccc1 (stereo partly drawn) | Not Active | > 100 µM | >100 µM | > 100 µM | inactive | 
NC(Cn1ccc(=O)c(O)c1)C(=O)O (stereo not drawn) [MIMOSINE] |  | > 100 µM |  |  |  | IC50 (Plasmodium falciparum [1]; [20]): 32 µM; IC50 (Plasmodium falciparum [4]): 39 µM
Cc1cc(C2CCCCC2)n(O)c(=O)c1 [CICLOPIROX OLAMINE] |  |  |  |  |  | IC50 (Plasmodium falciparum [6]): 8.2 µM
CCC[C@@H]1CC2(C[C@H](CCC)N1)C(=O)NC(=O)N2c1ccccc1 (stereo partly drawn) | Not Active | > 100 µM | >100 µM | 36 µM | inactive | 
CC[C@@H]1CC2(C[C@H](CC)N1)C(=O)N(CCCc1ccccc1)C(=O)N2c1ccccc1 (stereo partly drawn) | Not Active | 13.4 µM | >100 µM | > 100 µM | inactive | 
COC(=O)C1=C(c2ccccn2)N(Cc2ccc(Cl)cc2)C(c2ccccn2)CC1=O (stereo not drawn) |  |  |  |  | inactive | IC50 (Plasmodium falciparum [10]): 18 µM
CC[C@@H]1CC2(C[C@H](CC)N1)C(=O)N(CCc1ccccc1)C(=O)N2c1ccccc1 (stereo partly drawn) | Not Active | 18.1 µM | 41.1 µM | 32.3 µM | inactive | 
C[C@@H]1CC2(C[C@H](C)N1)C(=O)N(CCO)C(=O)N2Cc1ccccc1 (stereo partly drawn) | Not Active | > 100 µM | >100 µM | > 100 µM | inactive | 
Clc1cccc(Cl)c1CON=C1CCN(CCCc2ccccc2)CC1 |  | > 100 µM | >100 µM | > 100 µM | inactive | IC50 (Plasmodium falciparum [1]; [20]): 31 µM
C[C@@H]1CC2(C[C@H](C)N1)C(=O)N(Cc1ccc([N+](=O)[O-])cc1)C(=O)N2Cc1ccccc1 (stereo partly drawn) |  | 3.74 µM | >100 µM | 42.4 µM | inactive | IC50 (Plasmodium falciparum [11]): 14.6 µM
C=CCN1[C@H](c2ccc([N+](=O)[O-])cc2)C(C(=O)OCC)C(=O)C(C(=O)OCC)[C@@H]1c1ccc([N+](=O)[O-])cc1 (stereo partly drawn) |  | 3.06 µM |  | > 100 µM | inactive | IC50 (Plasmodium falciparum [7]): 11 µM; Activity [12]: Active; Activity [13]: Active; Activity (Mus musculus [14]): Active; Activity (Plasmodium falciparum [15]): 0%
COC(=O)c1c(-c2ccccn2)n(Cc2ccc(C)cc2)c(-c2ccccn2)cc1=O |  |  |  |  | inactive | IC50 (Plasmodium falciparum [10]): 9.1 µM; IC50 (Plasmodium falciparum [16]): 40 µM
C=CCN1[C@@H](c2ccccn2)C(C(=O)OC)=C(O)C[C@H]1c1ccccn1 |  |  | 50 µM | 35 µM | inactive | IC50 (Plasmodium falciparum [10]): 1.4 µM
Cl.Clc1cccc(Cl)c1CO/N=C/C1CCN(CCCc2ccccc2)CC1 |  |  | 30.72 µM | 28.4 µM | inactive | IC50 (Plasmodium falciparum [10]): 11.8 µM; IC50 (Plasmodium falciparum [11]): 8.29 µM
COC(=O)C1C(=O)C(C(=O)OC)[C@H](c2ccccn2)N(Cc2ccccc2)[C@@H]1c1ccccn1 (stereo partly drawn) |  |  | 55.99 µM | 34 µM | inactive | Activity (Mus musculus [17]): Active; IC50 (Plasmodium falciparum [10]): 10.2 µM; IC50 (Plasmodium falciparum [11]): 10.9 µM; Activity (Plasmodium falciparum [18]): 0%; Activity (Plasmodium falciparum [19]): 0%
C[C@@H]1CC2(C[C@H](C)N1)C(=O)NC(=O)N2c1ccccc1 (stereo partly drawn) | Not Active | > 100 µM | >100 µM | > 100 µM | inactive | 
N[C@@H](Cn1ccc(=O)c(O)c1)C(=O)O [L-MIMOSINE] |  |  |  |  |  | IC50 (Plasmodium falciparum [1]; [20]): 32 µM; IC50 (Plasmodium falciparum [4]): 39 µM

Second part, led by results:

IC50 (Plasmodium falciparum [1]) | EC50 [3] | SMILES | ED50 (Leishmania major) | CC50 at 48 h [2] | Activity (Staphylococcus aureus) | further results
Not Active | 4.62 µM | COC(=O)C1C(=O)C(C(=O)OC)[C@H](c2ccccn2)N(Cc2ccccn2)[C@@H]1c1ccccn1 (stereo partly drawn) | >100 µM | 29.9 µM | inactive | 
 | > 100 µM | COC(=O)c1c(-c2ccccn2)n(Cc2ccc(Cl)cc2)c(-c2ccccn2)cc1=O | >100 µM | > 100 µM | inactive | IC50 (Plasmodium falciparum [5]): 9.4 µM
Not Active | 2.41 µM | C=CCN1[C@H](c2ccc([N+](=O)[O-])cc2)C(C(=O)OC)C(=O)C(C(=O)OC)[C@@H]1c1ccc([N+](=O)[O-])cc1 (stereo partly drawn) | >100 µM | 50.3 µM | inactive | 
Not Active | 25.4 µM | CC[C@@H]1CC2(C[C@H](CC)N1Cc1ccccc1)C(=O)N(Cc1ccc([N+](=O)[O-])cc1)C(=O)N2c1ccccc1 (stereo partly drawn) | >100 µM | > 100 µM | inactive | 
 | 2.72 µM | CCOC(=O)C1C(=O)C(C(=O)OCC)[C@H](c2ccc([N+](=O)[O-])cc2)N(Cc2ccccc2)[C@@H]1c1ccc([N+](=O)[O-])cc1 (stereo partly drawn) |  | > 100 µM | inactive | IC50 (Plasmodium falciparum [7]): 10.1 µM; Inhibition [8]: 20%; Inhibition [9]: 20%
Not Active | 19.3 µM | COC(=O)C1C(=O)C(C(=O)OC)[C@H](c2ccccn2)N(CCCC(=O)O)[C@@H]1c1ccccn1 (stereo partly drawn) | >100 µM | 46 µM | inactive | 
 | > 100 µM | COC(=O)C1=C(c2ccccn2)N(Cc2ccccc2)C(c2ccccn2)CC1=O (stereo not drawn) |  |  | inactive | IC50 (Plasmodium falciparum [10]): 4.7 µM
 | 3.01 µM | COC(=O)C1C(=O)C(C(=O)OC)[C@H](c2ccc([N+](=O)[O-])cc2)N(Cc2ccccc2)[C@@H]1c1ccc([N+](=O)[O-])cc1 (stereo partly drawn) | >100 µM | 18.4 µM | inactive | IC50 (Plasmodium falciparum [7]): 11.9 µM; Inhibition [8]: 20%; Inhibition [9]: 20%
 | 0.32 µM | COC(=O)C1=C(O)C[C@H](c2ccccn2)N(Cc2ccc(Cl)cc2)[C@@H]1c1ccccn1 | 87.93 µM | 32.8 µM | inactive | IC50 (Plasmodium falciparum [11]): 12 µM; IC50 (Plasmodium falciparum [16]): 1.7 µM
Not Active | 18.3 µM | COC(=O)C1C(=O)C(C(=O)OC)[C@H](c2ccccn2)N(CCCO)[C@@H]1c1ccccn1 (stereo partly drawn) | >100 µM | 32 µM | inactive | 
Not Active | 31 µM | CC[C@@H]1CC2(C[C@H](CC)N1Cc1ccccc1)C(=O)NC(=O)N2c1ccccc1 (stereo partly drawn) | >100 µM | > 100 µM | inactive | 
